According to the supplement of paper PMC10307832:

Tests used:
Test in all cases: relative viability (nuclei count vs DMSO), 5 days (fraction); higher = more cells survive
[1] = compound: CCOC1=CC=CC=C1N=NC2=C(NN(C2=O)C3=NC(=CS3)C4=CC=CC=C4)C [BAM7] + Cc1cc(Nc2cc(N3CCN(C)CC3)nc(Sc3ccc(NC(=O)C4CC4)cc3)n2)n[nH]1 [Tozasertib] (partner 0.1 µM)
Procedure, shortened: (§1)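 Relative viability divides the nuclei count in treated wells by that in vehicle wells. Lung cancer cell lines were seeded in 1536-well plates, dosed by pin tool the next day, and fixed and stained after 5 days in one step with final 0.05% Triton X-100, 1% formaldehyde and 1 ug/ml Hoechst. Dosing was a single drug or a fixed anchor-drug dose plus five library-drug doses (not always all listed) in √10 steps, and values are medians of duplicate plates imaged at 4×.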

[2] = compound: CCn1c(-c2nonc2N)nc2c(C#CC(C)(C)O)ncc(OC[C@H]3CCCNC3)c21 + COc1cc2c(Oc3ccc(NC(=O)C4(C(=O)Nc5ccc(F)cc5)CC4)cc3F)ccnc2cc1OCCCN1CCOCC1 [Foretinib] (partner 0.25 µM)
Procedure, shortened: as §1

[3] = compound: CCn1c(-c2nonc2N)nc2c(C#CC(C)(C)O)ncc(OC[C@H]3CCCNC3)c21 + Cc1nc(NC(=O)N2CCC[C@H]2C(N)=O)sc1-c1ccnc(C(C)(C)C(F)(F)F)c1 [Alpelisib] (partner 2 µM)
Procedure, shortened: as §1

[4] = compound: CCOC1=CC=CC=C1N=NC2=C(NN(C2=O)C3=NC(=CS3)C4=CC=CC=C4)C [BAM7] + C[C@]1(O)C[C@@H](c2nc(-c3ccc4ccc(-c5ccccc5)nc4c3)c3c(N)nccn32)C1 [Linsitinib] (partner 1 µM)
Procedure, shortened: as §1

UMC-11
relative viability ([1]; first compound 0.5 µM): 0.2 | relative viability ([1]; first compound 5 µM): 0.202 | relative viability ([1]; first compound 15.81 µM): 0.196 | relative viability ([1]; first compound 50 µM): 0.198 | relative viability ([2]; first compound 0.01 µM): 1.01 | relative viability ([2]; first compound 0.03162 µM): 1.06 | relative viability ([2]; first compound 0.1 µM): 1.01 | relative viability ([2]; first compound 0.3162 µM): 0.931 | relative viability ([2]; first compound 1 µM): 1.04 | relative viability ([3]; first compound 0.01 µM): 1.04 | relative viability ([3]; first compound 0.03162 µM): 0.974 | relative viability ([3]; first compound 0.1 µM): 0.969 | relative viability ([3]; first compound 0.3162 µM): 0.96 | relative viability ([3]; first compound 1 µM): 0.976 | relative viability ([4]; first compound 0.5 µM): 1.12 | relative viability ([4]; first compound 5 µM): 1.05 | relative viability ([4]; first compound 15.81 µM): 1.07 | relative viability ([4]; first compound 50 µM): 1.09
